Source: US9963726B2, “Fiber-containing carbohydrate composition” (Tate & Lyle Ingredients Americas LLC, priority 2006, dated 2018)
Marks after values point to notes of the source that are not given here.

Test system: healthy human subjects
Assay: Blood glucose response in healthy human subjects
Format: in vivo
Settings: 10 healthy human subjects
Experimental: Samples containing 25 g (dsb) of the syrup were prepared as follows. 2.838 kg of filtered water was added to a jug containing a pre-weighed quantity of RCS. The lid was placed on the jug, and it was then mixed thoroughly by shaking and swirling until all syrup was dissolved. 12 oz. (350 g) of this solution contained 25 g of the test carbohydrate on a dry solids basis.
The control solution was prepared by mixing 25 g anhydrous glucose with 300 mL of water.
The samples were administered to 10 healthy human subjects. The characteristics of the subjects were: 5 male, 5 female; age, 35±10 y; body mass index, 24.0±3.8 kg/m^2. Each subject undertook nine tests on separate days which included the six test foods and on three occasions the standard glucose drink containing 25 g of available carbohydrate. Blood glucose was measured fasting and at 15, 30, 45, 60, 90 and 120 minutes after eating. Incremental areas under the blood glucose response curves (iAUC) were calculated. Each subject's iAUC after consumption of each test food was expressed as a percentage of the mean iAUC of the three glucose controls taken by the same subject. The incremental areas under the curve and relative glycemic response (RGR) of the products were: […]

OC[C@H]1OC(O)[C@H](O)[C@@H](O)[C@@H]1O (some centres unmarked) [Glucose, anhydrous glucose]
iAUC (incremental area under the blood glucose response curve) (25 g (dsb), blood glucose fasting to 120 minutes): 124.4 ± 13.5^a
RGR (relative glycemic response) (iAUC as percentage of mean iAUC of the three glucose controls of the same subject): 100^a
